Data: ChEMBL document CHEMBL1151233, “Biotransformation of imperatorin by Aspergillus flavus” (J Nat Prod, 2004)

Key:
Hepatitis B virus [1] = experiment: Antiviral activity against hepatitis B virus infected in human MS-G2 cells assessed as inhibition of surface antigen production at 10 uM after 48 hrs; assay type: functional; details: MS-G2, 48 h
Hepatitis B virus [2] = experiment: Antiviral activity against hepatitis B virus infected in human MS-G2 cells assessed as inhibition of e-antigen production at 100 uM after 48 hrs; assay type: functional; details: MS-G2, 48 h
Hepatitis B virus [3] = experiment: Antiviral activity against hepatitis B virus infected in human MS-G2 cells assessed as inhibition of e-antigen production at 50 uM after 48 hrs; assay type: functional; details: MS-G2, 48 h
Hepatitis B virus [4] = experiment: Antiviral activity against hepatitis B virus infected in human MS-G2 cells assessed as inhibition of e-antigen production at 10 uM after 48 hrs; assay type: functional; details: MS-G2, 48 h
[5] = Cytotoxicity against human MS-G2 cells at 100 uM by MTT assay; assay type: cell-based; details: read-out: INH
[6] = Cytotoxicity against human MS-G2 cells at 50 uM by MTT assay; assay type: cell-based; details: read-out: INH
[7] = Cytotoxicity against human MS-G2 cells at 10 uM by MTT assay; assay type: cell-based; details: read-out: INH
Hepatitis B virus [8] = experiment: Antiviral activity against hepatitis B virus infected in human MS-G2 cells assessed as inhibition of surface antigen production at 100 uM after 48 hrs; assay type: functional; details: MS-G2, 48 h
Hepatitis B virus [9] = experiment: Antiviral activity against hepatitis B virus infected in human MS-G2 cells assessed as inhibition of surface antigen production at 50 uM after 48 hrs; assay type: functional; details: MS-G2, 48 h

SMILES	inhibition at 10 µM (Hepatitis B virus [1]) [%]	inhibition at 100 µM (Hepatitis B virus [2]) [%]	inhibition at 50 µM (Hepatitis B virus [3]) [%]	inhibition at 10 µM (Hepatitis B virus [4]) [%]	cytotoxicity at 100 µM [5] [%]	cytotoxicity at 50 µM [6] [%]	cytotoxicity at 10 µM [7] [%]	inhibition at 100 µM (Hepatitis B virus [8]) [%]	inhibition at 50 µM (Hepatitis B virus [9]) [%]
CC(C)=CCOc1c2occc2cc2ccc(=O)oc12 [PENTOSALEN]	14.9	34.3	22.5	3.8	-8.7	8.9	11	68.4	55.3
C/C(=C/COc1c2occc2cc2ccc(=O)oc12)CO [Z-trichoclin]	13.6	12.4	11.9	8.2	12.6	15	18	45.2	34.6
O=c1ccc2cc3ccoc3c(O)c2o1 [XANTHOTOXOL]	5.2	0.7	2.7	-5	17	12.2	7.8	19.8	10.5
C/C(=C\COc1c2occc2cc2ccc(=O)oc12)CO	20.9	29	16.5	8	10.3	3.4	13	61.3	37.4
C/C(=C/COc1c2occc2cc2ccc(=O)oc12)C(=O)O	13.2	12.5	1.6	0.7	14.7	18.4	11.7	27	12.3
